In patent publication US11834698B2, “Process for determining enzyme activity in a cell by activity-based reporter gene technology (ABRGT)” (INDIAN INSTITUTE OF SCIENCE EDUCATION AND RESEARCH, priority 2018, dated 2023):
Blank lines part the entries; values can stand above or below the molecule they belong to.

How the values were obtained:
cathepsin B GFPspark = biological target: T1, cathepsin B GFPspark (Homo sapiens, UniProt P07858); assay: AbRGT FRET imaging / acceptor photobleaching, cathepsin B GFPspark in HEK-293 cells; format: cell-based; conditions: HEK-293, inhibitor 50 μM 1 h before probe 1 labelling, STS 4 h
T1 construct: GFPspark (C); host or cells: HEK-293
Experimental: FIG. 20 depicts confocal images of HEK-293 cells in GFP, FRET and Rh channel Cathepsin B GFPspark transfected HEK-293 cells were treated with STS (1 μM) for 4 h and labelled (a) (i) with or (a) (iv) without probe 1. Cells were pre-treated with (a) (ii) Z-VAD-FMK (50 μM) or (a) (iii) E-64 (50 μM) inhibitor 1 h before the probe 1 labelling. (b) Quantification of the change in GFPS fluorescence intensity after rhodamine photobleaching in both unbleached control region and rhodamine bleached region (ROI), using acceptor photo-bleaching method. Error bar represents the s.e.m for n=10 cells (*P<0.00001). Scale bar, 10 μm. a.u., arbitrary units.
(§1) Plasmids and transient transfection: GFPspark tagged plasmids; caspase-3 GFPspark tag (Cat: HG10050-ACG), caspase-7 GFPspark tag (HG10049-ACG), caspase-8 GFPspark (HG10078-ACG), caspase-9 GFPspark (HG11151-ACG) and cathepsin B GFPspark (HG10483-ACG) were procured from Sino Biological. For transfection, cells were seeded in a 6-well plate at a density of 0.4 million cells/well. At 60-70% confluency, cells were transiently transfected for 24 h at 37° C. with 1 μg of the GFPspark tagged plasmid DNA construct mixed with 5 μL of Lipofectamine 2000 (Invitrogen) according to the manufacturer's instructions. 24 h post-transfection, cells were visualized under the GFP filter for GFPspark expression under fluorescence microscope at 10× magnification.
(§2) Labelling of active caspases in apoptotic cells with FABP: After 24 h of transfection, cells were treated with STS (1 μM) drug or TRAIL (1 μg/ml) for apoptotic induction and incubated for 2, 4, 6 and 8 h at 37° C. in a humidified atmosphere of 5% CO2/95% air. Cells were gently scraped off from the surface at the end of apoptotic induction and centrifuged at 3000 rpm for 5 min. The cell pellet was resuspended in 300 μL of fresh DMEM containing 1 μM of probe for probe 2 and incubated for additional 2 h at 37° C. in a humidified atmosphere of 5% CO2. Cells were again centrifuged at 3000 rpm for 5 mins, and the supernatant was decanted. Cells were washed with 1×PBS, thrice finally resuspended in 20 μL of 1×PBS. The cell suspension was put on a slide, and a coverslip was placed over it. It was left for air drying. Slides were then imaged for GFP, FRET and rhodamine fluorescence signals under confocal microscopy.
Inhibitor assay: Cells were pre-treated with 50 μM of Z-VAD-FMK or Q-VD-OPh or E-64 inhibitor 1 h before probe 1 labelling and incubated for 1 h at 37° C. in a humidified atmosphere of 5% CO2. Cells were gently scraped off from the surface at the end of inhibitor treatment and centrifuged at 3000 rpm for 5 min Cells were then labelled with the probe 1 as described in the previous section.
Fluorescence imaging studies, FRET procedure: Images were collected on Zeiss LSM710 confocal microscope with 25 mW argon laser using Zen10 software. The laser was tuned to lines at 488 nm (excitation laser for GFPspark) and 561 nm (excitation laser for rhodamine) Cells were examined with a 40× 1.3 NA Zeiss oil immersion objective and 2.4× zoom. Images were collected in the three channels; GFP channel, argon laser tuned at 488 nm with 2% laser intensity and fluorescence emission was collected in emission range of 490-550 nm; rhodamine channel, argon laser tuned to 561 nm laser with 2% laser intensity and fluorescence emission was collected in range 550-650 nm and FRET channel with excitation laser of GFPSPARK channel and emission range of rhodamine channel. […]

caspase-3/7 = assay: Substrate-based reporter assay, CFP-DEVDR-YFP cleavage, live cell FRET
Experimental: FIGS. 8A and 8B depict the time course of cleavage for CFP-DEVDR-YFP plasmid. Time is relative to the first frame taken after 8 h of STS treatment. […] The percentage rise in the CFP/YFP intensity ratio was 47%. Rise in CFP/YFP intensity ratio is an indirect measure of caspase-3/7 activation.
To rule out that the obtained FRET signal in [FIG. 2b (i)] is not because of random physical interaction between GFPspark and rhodamine dye, MCF-7 cells were transfected with a plasmid encoding for enhanced green fluorescent protein (EGFP). EGFP transfected MCF-7 cells were treated with STS (1 μM) for 4 h, labelled with the probe 1. […] In-gel fluorescence assay was also performed to validate the multiple off-targets labelling of probe 1 which has also been shown in the previous reports. […] The calculated FRET efficiency for (n=15 cells) is 35±1%. […] Caspase-3 activation was also monitored using probe 2 as fABP which is different from probe 1 in terms of peptide recognition sequence; DEVD in exchange for VAD as DEVD peptide sequence is more specific for caspases as compared to VAD. Probe 2 yielded a similar pattern of fluorescence signal in GFPspark, FRET and Rh channel as that of probe 1 [FIG. 7(a)]. The calculated FRET efficiency was 35% [FIG. 7(b)]. […] Acceptor photo-bleaching method was done to confirm the FRET signal, and the calculated FRET efficiency was 32±2% [FIG. 10 (a & b)].

[1] = system: cleaved caspase-3 p17 fragment; assay: Western blot of cleaved caspase-3 p17 fragment in HeLa cells; format: cell-based; conditions: STS 1 μM, after 12 h, 18 and 24 h
Experimental: FIG. 9 depicts a western blot analysis of cleaved caspase-3 p17 fragment after 18 and 24 h of STS (1 μM) treatment in HeLa cells. Lysate loading was done in triplicates. Double headed arrow representing 3 lanes with the same sample.
To rule out that the obtained FRET signal in [FIG. 2b (i)] is not because of random physical interaction between GFPspark and rhodamine dye, MCF-7 cells were transfected with a plasmid encoding for enhanced green fluorescent protein (EGFP). EGFP transfected MCF-7 cells were treated with STS (1 μM) for 4 h, labelled with the probe 1. […] In-gel fluorescence assay was also performed to validate the multiple off-targets labelling of probe 1 which has also been shown in the previous reports. […] The calculated FRET efficiency for (n=15 cells) is 35±1%. […] Caspase-3 activation was also monitored using probe 2 as fABP which is different from probe 1 in terms of peptide recognition sequence; DEVD in exchange for VAD as DEVD peptide sequence is more specific for caspases as compared to VAD. Probe 2 yielded a similar pattern of fluorescence signal in GFPspark, FRET and Rh channel as that of probe 1 [FIG. 7(a)]. The calculated FRET efficiency was 35% [FIG. 7(b)]. […] To confirm the reported results, the cleaved caspase-3 p17 fragment in immunoblotting was also detected by using active caspase-3 p17 antibody after […] of STS (1 μM) treatment [FIG. 9]. […]

caspase-3 GFPspark = biological target: T2, caspase-3 GFPspark (Homo sapiens, UniProt P42574); assay: AbRGT FRET imaging / acceptor photobleaching, caspase-3 GFPspark in MCF-7 cells; format: cell-based; parameters: host or cells: MCF-7, HeLa, HEK-293; conditions: MCF-7, STS 1 μM 4 h
T2 sequence (P42574 29-175 limits assumed): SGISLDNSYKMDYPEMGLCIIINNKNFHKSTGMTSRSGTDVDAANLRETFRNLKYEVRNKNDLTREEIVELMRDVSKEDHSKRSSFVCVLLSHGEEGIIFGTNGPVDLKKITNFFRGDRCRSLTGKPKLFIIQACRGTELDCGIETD
T2 sequence (P42574 176-277 limits assumed): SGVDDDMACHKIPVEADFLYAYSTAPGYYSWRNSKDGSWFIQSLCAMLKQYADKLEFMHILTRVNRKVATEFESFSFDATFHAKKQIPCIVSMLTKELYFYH
Experimental: FIG. 2 depicts (a) a schematic representation of AbRGT in determining the specific activation of caspase-3 GFPspark tagged enzyme by FRET effect utilizing Rh-VAD-FMK (probe 1). (b) The fluorescence signal was collected in GFP, FRET and Rhodamine (Rh) channels. MCF-7 cells transfected with caspase-3 GFPspark treated with (i) 1 μM STS for 4 h or (ii) 1 μg/ml TRAIL for 5 h and then labelled with probe 1. (iii) Un-transfected MCF-7 cells were treated with 1 μM STS for 4 h and then labelled with the probe 1. MCF-7 cells transfected with enhanced green fluorescent protein (EGFP) plasmid treated (iv) with 1 μM STS or (v) without STS for 4 h and then labelled with probe 1, scale bar, […]. (c) FRET validation between GFPspark and rhodamine fluorophore using the acceptor photobleaching method. Images for GFP and rhodamine fluorescence signals were collected in GFP and FRET channels pre- and post-bleaching of rhodamine signals. (d) Quantification of change in GFP fluorescence intensity after rhodamine photo-bleaching in both unbleached control region and rhodamine bleached region, region of interest (ROI), area under the white square. Error bar represents the s.e.m for n=15 cells (*P<0.00001). Scale bar, 10 μm. a.u., arbitrary units.
FIGS. 6A and 6B depict time dependent activation of caspase-3 GFPspark in MCF-7 cells upon STS (1 μM) induction. MCF-7 cells transfected with 2 μg of caspase-3 GFPspark plasmid and treated with 1 μM of STS for 2, 6, and 8 h. Cells were then labelled with the probe 1 for an additional 2 h. […] FRET validation between GFPspark and rhodamine fluorophore using the acceptor photobleaching method for the MCF-7 cells with STS induction for 2, 6 and 8 h. I=intensity (a.u.), arbitrary units. The calculated FRET efficiency for 2, 6 and 8 h are 38, 43, and 36% respectively.
FIGS. 7A and 7B depict applying AbRGT for specific detection of active caspase-3 GFPspark using the Rh-DEVD-FMK (probe 2). Caspase-3 GFPspark (2 μg) overexpressing MCF-7 cells were treated with 1 μM of STS for 4 h and labelled with the probe 2 (1 μM). […] The rise in GFPspark intensity after rhodamine photobleaching in the background is insignificant as compared to the ROI, i.e., 68 a.u., with a calculated FRET efficiency of 35%.
FIG. 12 depicts confocal images of MCF-7 cells in GFP, FRET and Rh channel. Caspase-3 GFPspark transfected MCF-7 cells were treated with STS for 4 h and labelled (a) with or (b) without probe 1. Cells were pre-treated with (c) Z-VAD-FMK (50 μM) and (d) Q-VD-OPh (50 μM) pan-caspase inhibitors 3 h before the probe labelling.
as §1
as §2, with “Cells were washed with 1×PBS, thrice finally resuspended in 20 μL of 1×PBS. The cell suspension was put on a slide, and a coverslip was placed over it. It was left for air drying. Slides were then imaged for GFP, FRET and rhodamine fluorescence signals under confocal microscopy.” left out

effect of inhibitor on FRET signal (cathepsin B GFPspark): abolished
Molecule: CC(C)C[C@H](NC(=O)[C@H]1O[C@@H]1C(=O)O)C(=O)NCCCCN=C(N)N [E-64]
signal in Rh channel in presence of inhibitor (cathepsin B GFPspark): sharp, intense punctate labelling was observed

Molecule: CN[C@@H]1C[C@H]2O[C@@](C)([C@@H]1OC)n1c3ccccc3c3c4c(c5c6ccccc6n2c5c31)C(=O)NC4 [STS, staurosporine]
percentage rise in the CFP/YFP intensity ratio (caspase-3/7; CFP-DEVDR-YFP plasmid, from 8 h of STS treatment): 47% | time of caspase-3/7 activation after treatment (caspase-3/7; STS 1 μM, live cell imaging): 10 to 12 h | cleaved caspase-3 p17 fragment in immunoblotting [1]: detected

rise in GFP intensity after rhodamine photobleaching in ROI (caspase-3 GFPspark; probe 1 μM): 68 a.u. | calculated FRET efficiency (caspase-3 GFPspark; probe 1 μM 2 h, acceptor photobleaching): 35%
Molecule: Rh-DEVD-FMK [probe 2]
